Assay results from patent US20040254173A1, “Modulation of dopamine responses with substituted (S)-2,3-benzodiazepines” (priority 2003, published 2004).

Test system: apomorphine-induced hypothermia, stereotypies and climbing
Assay: Low Dose Apomorphine Test in the mouse
Assay type: in vivo
Settings: for STEREOTYPY (intensity score), 20 min after apomorphine, mean ± s.e.m. / STEREOTYPY (intensity score), 50 min after apomorphine, mean ± s.e.m.: 4 point scale (0-3); for CLIMBING (No. of mice), 20 minutes after apomorphine / CLIMBING (No. of mice), 50 minutes after apomorphine: 6 mice per group; for Rectal Temperature, 30 min after apomorphine, mean ± s.e.m. / Rectal Temperature, 60 min after apomorphine, mean ± s.e.m. / Rectal Temperature, before apomorphine, mean ± s.e.m. / effect on apomorphine-induced hypothermia: mouse; for Rectal Temperature, 30 min after apomorphine, mean change from control / Rectal Temperature, 60 min after apomorphine, mean change from control / STEREOTYPY (intensity score), 20 min after apomorphine, mean change from control / STEREOTYPY (intensity score), 50 min after apomorphine, mean change from control: vs vehicle
From the text: Racemic tofisopam, (R)-tofisopam and (S)-tofisopam were investigated in the Low Dose Apomorphine Test in the mouse to evaluate their pro- or anti-dopaminergic activity following intraperitoneal (i.p.) administration of apomorphine. Apomorphine, at a low dose, induces hypothermia, stereotypies and climbing. All three of these symptoms are potentiated by dopaminergic agonists and antagonized by dopamine antagonists, such as classical neuroleptics. The Low Dose Apomorphine Test, thus serves to detect pro- or antidopaminergic activity. The test was performed according to the protocols described by Chermat and Poncelet. See, Chermat R., Poncelet M., “Antagonisme des redressements, des stéréotypies et de l'hypotheimie induits par 1 ou 16 mg.kg-1 d'apomorphine,” J. Pharmacol., 14, 93-97, 1983.
Male mice of Rj: NMRI strain, 23-26 g body weight range were supplied by Elevage Janvier, 53940 Le Genest-Saint-Isle, France. The animals were delivered to the laboratory at least 3 days before the experiment and, upon arrival, were housed 10 per cage in macrolon cages (25×19×13 cm) containing wood shavings (Litalabo-SPPS, 95100 Argenteuil, France) with free access to food (UAR 113-UAR, 91360 Epinay-sur-Orge, France) and tap water (i.e. non-fasted) until tested. The animal house was maintained under artificial lighting (12 hours) between 7.00 and 19.00 in a controlled ambient temperature of 21±1° C., and relative humidity maintained at 40-70%.
The different treatments were equally distributed between the animals. During the experiment, each animal within a cage received the same treatment. Animals within a cage were individually marked on the tail with an indelible pen.
The experiment was conducted blind with treatment vials labeled A, B, C etc., according to a standardized coding procedure. The evaluation of the different treatments was balanced over time by testing successive series of individual animals from each treatment group in a fixed rotation (A, B, C, etc.). Animals were sacrificed at the end of the experiment by exposure to CO2.
Three compounds, racemic tofisopam, (R)-tofisopam and (S)-tofisopam were tested in the Low Dose Apomorphine Test. Each of these three compounds was dosed as a dispersion in 0.2% hydroxypropylmethylcellulose (HPMC) (Sigma), in sterile physiological saline (Laboratoire Aguettant).
Two reference standards were also dosed. Bromocriptine, methanesulfonate (Sigma), a known dopamine agonist, and haloperidol (Sigma), a known dopamine antagonist, were dispersed in 0.2% HPMC in sterile physiological saline.
Apomorphine hydrochloride, the dopamine mimetic employed in the assay, was dissolved in water for injectable preparation (Laboratoire Aguettant). Dosing: All of the dosed substances were administered in a volume of 10 ml/kg. The doses are expressed in mg/kg of supplied substance.
6 mice were studied per group. The test was performed blind.
Racemic tofisopam, (R)-tofisopam and (S)-tofisopam were administered at doses of 16, 32 and 64 mg/kg, administered intraperitonealy (i.p.), 30 minutes prior to administration of apomorphine.
The rectal temperature of the mice was measured prior to apomorphine dosing using a rectal probe (Physitemp Instruments Digital Laboratory Thermometer Model BAT-12). The mice were then placed in individual Plexiglas cages (10×6×4 cm) attached with the opening against a vertical wire grid.
The mice were then injected subcutaneously (s.c.) with apomorphine (1 mg/kg). Rectal temperature was measured 30 and 60 minutes after the injection of apomorphine.
The intensity of stereotypies (sniffing, licking, gnawing), were scored at 20 minutes and 50 minutes after injection of apomorphine on a 4 point scale (0-3). The presence (1) or absence (0) of climbing against the wire grid wall, were also assessed 20 and 50 minutes after injection of apomorphine.
The reference standards bromocriptine (16 mg/kg) and haloperidol (0.5 mg/kg), were administered under the same experimental conditions.

[1] = 16 mg/kg i.p. 30 min before apomorphine 1 mg/kg s.c.
[2] = 16 mg/kg i.p., 30 min after test substance
[3] = 32 mg/kg i.p. 30 min before apomorphine 1 mg/kg s.c.
[4] = 32 mg/kg i.p., 30 min after test substance
[5] = 64 mg/kg i.p. 30 min before apomorphine 1 mg/kg s.c.
[6] = 64 mg/kg i.p., 30 min after test substance
[7] = 0.5 mg/kg, before apomorphine 1 mg/kg s.c.

Compound | STEREOTYPY (intensity score), 20 min after apomorphine, mean ± s.e.m. [1] | STEREOTYPY (intensity score), 50 min after apomorphine, mean ± s.e.m. [1] | CLIMBING (No. of mice), 20 minutes after apomorphine [1] | CLIMBING (No. of mice), 50 minutes after apomorphine [1] | Rectal Temperature, 30 min after apomorphine, mean ± s.e.m. [1] [°C] | Rectal Temperature, 60 min after apomorphine, mean ± s.e.m. [1] [°C] | Rectal Temperature, 30 min after apomorphine, mean change from control [1] [°C] | Rectal Temperature, 60 min after apomorphine, mean change from control [1] | STEREOTYPY (intensity score), 20 min after apomorphine, mean change from control [1] | STEREOTYPY (intensity score), 50 min after apomorphine, mean change from control [1] | Rectal Temperature, before apomorphine, mean ± s.e.m. [2] [°C] | STEREOTYPY (intensity score), 20 min after apomorphine, mean ± s.e.m. [3] | STEREOTYPY (intensity score), 50 min after apomorphine, mean ± s.e.m. [3] | CLIMBING (No. of mice), 20 minutes after apomorphine [3] | CLIMBING (No. of mice), 50 minutes after apomorphine [3] | Rectal Temperature, 30 min after apomorphine, mean ± s.e.m. [3] [°C] | Rectal Temperature, 60 min after apomorphine, mean ± s.e.m. [3] [°C] | Rectal Temperature, 30 min after apomorphine, mean change from control [3] [°C] | Rectal Temperature, 60 min after apomorphine, mean change from control [3] [°C] | STEREOTYPY (intensity score), 20 min after apomorphine, mean change from control [3] | also measured
CC[C@H]1C(C)=NN=C(c2ccc(OC)c(OC)c2)c2cc(OC)c(OC)cc21 [(R)-tofisopam, (R)-1-(3,4-dimethoxyphenyl)-4-methyl-5-ethyl-7,8-dimethoxy-5H-2,3-benzodiazepine] | 2.8 ± 0.2 | 1.0 ± 0.3 | 6 No. of mice | 5 No. of mice | 35.1 ± 0.3 | 36.9 ± 0.2 | 0.0 | +0.2 °C | +0.6 | 0.0 | 37.3 ± 0.1 | 2.2 ± 0.2 | 1.0 ± 0.3 | 6 No. of mice | 4 No. of mice | 34.6 ± 0.4 | 36.6 ± 0.2 | −0.5 | −0.1 | 0.0 | STEREOTYPY (intensity score), 50 min after apomorphine, mean change from control [3]: 0.0; Rectal Temperature, before apomorphine, mean ± s.e.m. [4]: 37.1 ± 0.1 °C; STEREOTYPY (intensity score), 20 min after apomorphine, mean ± s.e.m. [5]: 1.5 ± 0.6; STEREOTYPY (intensity score), 50 min after apomorphine, mean ± s.e.m. [5]: 1.2 ± 0.3; CLIMBING (No. of mice), 20 minutes after apomorphine [5]: 3 No. of mice; CLIMBING (No. of mice), 50 minutes after apomorphine [5]: 2 No. of mice; Rectal Temperature, 30 min after apomorphine, mean ± s.e.m. [5]: 35.1 ± 0.4 °C; Rectal Temperature, 60 min after apomorphine, mean ± s.e.m. [5]: 36.5 ± 0.4 °C; Rectal Temperature, 30 min after apomorphine, mean change from control [5]: 0.0 °C; Rectal Temperature, 60 min after apomorphine, mean change from control [5]: −0.2 °C; STEREOTYPY (intensity score), 20 min after apomorphine, mean change from control [5]: −0.7; STEREOTYPY (intensity score), 50 min after apomorphine, mean change from control [5]: +0.2; Rectal Temperature, before apomorphine, mean ± s.e.m. [6]: 37.2 ± 0.1 °C; effect on apomorphine-induced hypothermia (16, 32 and 64 mg/kg i.p.): did not affect; effect on apomorphine-induced hypothermia, stereotypies or climbing (dose-range tested (16, 32, 64 mg/kg i.p.)): did not affect
O=C(CCCN1CCC(O)(c2ccc(Cl)cc2)CC1)c1ccc(F)cc1 [Haloperidol, haloperidol] |  |  |  |  |  |  |  |  |  |  |  |  |  |  |  |  |  |  |  |  | effect on apomorphine-induced stereotypies and climbing as well as hypothermia (0.5 mg/kg): significantly antagonized; STEREOTYPY (intensity score), 20 min after apomorphine, mean ± s.e.m. [7]: 0.0 ± 0.0; STEREOTYPY (intensity score), 50 min after apomorphine, mean ± s.e.m. [7]: 0.0 ± 0.0; CLIMBING (No. of mice), 20 minutes after apomorphine [7]: 0+ No. of mice; CLIMBING (No. of mice), 50 minutes after apomorphine [7]: 1 No. of mice; Rectal Temperature, 30 min after apomorphine, mean ± s.e.m. [7]: 37.0 ± 0.1 °C; Rectal Temperature, 60 min after apomorphine, mean ± s.e.m. [7]: 37.7 ± 0.1 °C; Rectal Temperature, 30 min after apomorphine, mean change from control [7]: +1.9 °C; Rectal Temperature, 60 min after apomorphine, mean change from control [7]: +1.0 °C; STEREOTYPY (intensity score), 20 min after apomorphine, mean change from control [7]: −2.2; STEREOTYPY (intensity score), 50 min after apomorphine, mean change from control [7]: −1.0; Rectal Temperature, before apomorphine, mean ± s.e.m. (0.5 mg/kg): 37.3 ± 0.1 °C; effect on apomorphine-induced hypothermia (0.5 mg/kg): significantly antagonized
CC[C@@H]1C(C)=NN=C(c2ccc(OC)c(OC)c2)c2cc(OC)c(OC)cc21 [(S)-tofisopam, (S)-1-(3,4-dimethoxyphenyl)-4-methyl-5-ethyl-7,8-dimethoxy-5H-2,3-benzodiazepine] | 3.0 ± 0.0 | 0.7 ± 0.2 | 6 No. of mice | 3 No. of mice | 34.8 ± 0.4 | 37.2 ± 0.2 | −0.3 | +0.5 °C | +0.8 | −0.3 | 37.2 ± 0.3 | 2.3 ± 0.3 | 0.3 ± 0.2 | 6 No. of mice | 2 No. of mice | 34.4 ± 0.3 | 36.6 ± 0.2 | −0.7 | −0.1 | +0.1 | behaviour on apomorphine-induced hypothermia (rectal temperature) (16 mg/kg, sixty minutes after apomorphine, slight but statistically significant elevation in temperature): weak dopamine antagonist; behaviour on apomorphine-induced stereotypies (16 mg/kg, twenty minute time point): strong dopamine agonist; STEREOTYPY (intensity score), 50 min after apomorphine, mean change from control [3]: −0.7; Rectal Temperature, before apomorphine, mean ± s.e.m. [4]: 37.0 ± 0.2 °C; STEREOTYPY (intensity score), 20 min after apomorphine, mean ± s.e.m. [5]: 0.2 ± 0.2; STEREOTYPY (intensity score), 50 min after apomorphine, mean ± s.e.m. [5]: 0.2 ± 0.2; CLIMBING (No. of mice), 20 minutes after apomorphine [5]: 0+ No. of mice; CLIMBING (No. of mice), 50 minutes after apomorphine [5]: 0 No. of mice; Rectal Temperature, 30 min after apomorphine, mean ± s.e.m. [5]: 33.6 ± 0.7 °C; Rectal Temperature, 60 min after apomorphine, mean ± s.e.m. [5]: 33.3 ± 1.0 °C; Rectal Temperature, 30 min after apomorphine, mean change from control [5]: −1.5 °C; Rectal Temperature, 60 min after apomorphine, mean change from control [5]: −3.4 °C; STEREOTYPY (intensity score), 20 min after apomorphine, mean change from control [5]: −2.0; STEREOTYPY (intensity score), 50 min after apomorphine, mean change from control [5]: −0.8; Rectal Temperature, before apomorphine, mean ± s.e.m. [6]: 37.2 ± 0.2 °C; behaviour on apomorphine-induced stereotypies and climbing (64 mg/kg, twenty and fifty minute time points): strong dopamine antagonist; behaviour on apomorphine-induced hypothermia (rectal temperature) (higher doses (32, 64 mg/kg), thirty and sixty minute time points, lowering the rectal temperature): dopamine antagonism
Bromocriptine, methanesulfonate | 2.7 ± 0.2 | 1.0 ± 0.4 | 6 No. of mice | 2 No. of mice | 34.4 ± 0.4 | 35.0 ± 0.5 | −0.7 | −1.7 °C | +0.5 | 0.0 | 37.2 ± 0.2 |  |  |  |  |  |  |  |  |  | effect on apomorphine-induced stereotypies or climbing (16 mg/kg): did not significantly affect; effect on apomorphine-induced hypothermia (16 mg/kg): significantly potentiated
